Patent US8071645B2, “Systems and methods for treating human inflammatory and proliferative diseases and wounds, with fatty acid metabolism inhibitors and/or glycolytic inhibitors” (The Regents of the University of Colorado, priority 2003, dated 2011)

Assays:
[1] = tested on: HL60 MDR tumor; assay: HL60 MDR tumor implanted in nude mice, tumor volume; assay type: in vivo
Source text: Tumor implantation. Mice were purchased from the Animal Production Program of National Cancer Institute, Frederick, Md. The animals used were Athymic Ncr-nu/nu (strain code 01B74). HL60 MDR cells were harvested and reconstituted at 1 million cells per 100 microliters of phosphate buffered saline. One million tumor cells per injection site were implanted subcutaneously on two sites of the animal's back. Treatments began at exactly seven days post tumor implantation. Tumor size/volume was monitored twice weekly using measurement calipers, with the formula Tumor Volume=π×(short diameter)^2×(long diameter)/6.
Mice experiments with fatty acid metabolism and glycolytic inhibitors. Fatty acid metabolism inhibitors were exemplified by etomoxir at 200 micrograms/day. Glycolytic inhibitors were exemplified by 2-deoxy-D-glucose at 2.5 mM in 100 microliters daily. The combination was administered daily, etomoxir at 200 micrograms and 2-deoxy-D-glucose at 2.5 mM in 100 microliters. All drugs were administered intra-peritoneally. 5-Fluoro-uracil, at 20 mg per kilogram mouse, was injected intra-peritoneally once a week
HL60 MDR human leukemia cells were cultured and implanted in nude mice as described above under “Materials and Methods”. The mice were given 200 ug of Etomoxir, 2.5 mM 2-Deoxy-D-glucose, or both 200 ug of Etomoxir and 2.5 mM 2-Deoxy-D-glucose given daily by IP injection. Treatment began exactly one week after tumor implantation.

[2] = tested on: RD cells (rhabdomyosarcoma cells); assay: percent death of RD cells by flow cytometry; assay type: cell-based
Procedure: Dot plots as a function of live versus dead cells. The cells were cultured at a concentration of 0.5 to 1 million cells per ml. Cells were untreated or treated with etomoxir or 2-deoxy-D-glucose at a concentration of 2.5 mM at the indicated concentrations for either 24 or 48 hours. In additional experiments, under each of these culture conditions, the cells were cultured for 24 hours at which time point, polyclonal anti-UCP-2 was added at a 1:1000 dilution of stock provided by Alpha Diagnostics, San Antonio, Tex. Cells were harvested and analyzed by flow cytometry. Each dot on the dot plots of FIGS. 1, 3, 5, 7, 9, and 11 represents one cell. Five thousand cells were assessed for forward scatter (FS), as a function of cell size, versus side scatter (SS), as a function of cellular granularity. The upper ellipse represents live cells by these criterion and the lower ellipse in each dot plot represents the dead cells.
Statistical Analysis, Percents, and Geometric Mean Values Percents. Gating is a tool provided by Cell Quest software and allows for the analysis of a certain population of cells. Gating around both the live and dead cell populations gave a percent of the cell numbers that was in each population. After the gates were drawn, a percent value of dead cells was calculated by taking the number of dead cells divided by the number of total cells and multiplying by one hundred.
Referring to FIGS. 29 and 30, RD cells (rhabdomyosarcoma cells—not drug resistant), cultured as described above under “Materials and Methods” were untreated or treated with etomoxir, with 2-deoxy-D-glucose, or with a combination of etomoxir and 2-deoxy-D-glucose, at concentrations indicated in FIG. 29 for 24 hours. Cells were harvested and analyzed by flow cytometry. […] The percent of cell deaths for RD cells after 24 hours was: (a) 31% when untreated, (b) 57% when treated with etomoxir alone, (c) 46% when treated with 2-deoxy-D-glucose alone, and (d) 66% when treated with the combination of etomoxir and 2-deoxy-D-glucose.
Referring to FIGS. 33 and 34, RD cells, cultured as described in Example 22, were untreated or treated with etomoxir, with 2-deoxy-D-glucose, or with a combination of etomoxir and 2-deoxy-D-glucose, at concentrations indicated in FIG. 33 for 48 hours. Cells were harvested and analyzed by flow cytometry. […] The percent of cell deaths for RD cells after 48 hours was: (a) 36% when untreated, (b) 64% when treated with etomoxir alone, (c) 63% when treated with 2-deoxy-D-glucose alone, and (d) 68% when treated with the combination of etomoxir and 2-deoxy-D-glucose.

[3] = tested on: human leukemia HL60 cells; assay: DCFDA staining of HL60 cells; assay type: cell-based; details: 24 hours of incubation, FIG. 14
Procedure: Flow Cytometry. Cells were harvested, counted, and resuspended at 10^6 cells/100 μl of PBS containing 2.5% fetal calf serum in preparation for flow cytometric analysis. Cells were stained for intracellular H202 using 6-carboxy-2′,7′-dichlorodihydrofluorescein diacetate (DCF-DA, Molecular Probes, Eugene, Oreg.). Briefly, cells were incubated at 37° with 1 mM DCF-DA for 20 minutes, washed twice in PBS containing 2.5% fetal calf serum and analyzed flow cytometrically. Mitochondrial membrane potential was assessed using Mitotracker Red (CM-H2XROS, Molecular Probes, Eugene, Oreg.). The cells were resuspended in PBS containing 2.5% fetal calf serum containing a final concentration of 0.5 micromolar Mitotracker dye. The cells were incubated at 37° for 20 minutes, washed twice in PBS containing 2.5% fetal calf serum and analyzed flow cytometrically. Data were acquired on a Coulter Elite Epics or Excel flow cytometer (Coulter, Hialeah, Fla.) and analyzed with CellQuest software, (Becton Dickinson, San Jose, Calif.). […] Each sample population was classified for cell size (forward scatter) and complexity (side scatter), gated on a population of interest and evaluated using 5,000 cells. […]
The effects of etomoxir on human leukemia HL60 cells was determined. […]

CCOC(=O)C1(CCCCCCOc2ccc(Cl)cc2)CO1 (centres unmarked) [etomoxir, 2-(6-(4-chlorophenoxy)-hexyl)-oxirane-2-carboxylic acid ethyl ester]
tumor growth versus control ([1]; 21 day period, single agent): increase in tumor growth | tumor volume, Day 7 ([1]; Day 7 after implantation (start of treatment), 200 ug Etomoxir and/or 2.5 mM 2-Deoxy-D-glucose daily IP): 36 mm^3 | tumor volume, Day 9 ([1]; Day 9, 200 ug Etomoxir and/or 2.5 mM 2-Deoxy-D-glucose daily IP): 71.73 mm^3 | tumor volume, Day 15 ([1]; Day 15, 200 ug Etomoxir and/or 2.5 mM 2-Deoxy-D-glucose daily IP): 261.35 mm^3 | tumor volume, Day 21 ([1]; Day 21, 200 ug Etomoxir and/or 2.5 mM 2-Deoxy-D-glucose daily IP): 895.09 mm^3 | percent of cell deaths ([2]; 24 hours, concentrations as in FIG. 29): 57% | percent of cell deaths ([2]; 48 hours, concentrations as in FIG. 33): 64% | reactive oxygen intermediates (DCFDA staining) [3]: increases
